Results reported in PubChem BioAssay (NCI).
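GI50 = concentration required for 50% inhibition of growth. TGI denotes the concentration required for complete inhibition of growth.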

What was measured:
Test in all cases: NCI tumour cell line growth inhibition, 384-well format
SNB-19 CNS = system: SNB-19 CNS
MDA-MB-468 breast = system: MDA-MB-468 breast
UACC-257 melanoma = system: UACC-257 melanoma
CAKI-1 renal = system: CAKI-1 renal
SK-MEL-2 melanoma = system: SK-MEL-2 melanoma
SR leukemia = system: SR leukemia
SNB-75 CNS = system: SNB-75 CNS
OVCAR-4 ovarian = system: OVCAR-4 ovarian
SN12C renal = system: SN12C renal
SK-MEL-28 melanoma = system: SK-MEL-28 melanoma
MALME-3M melanoma = system: MALME-3M melanoma
RPMI-8226 leukemia = system: RPMI-8226 leukemia
HCT-15 colon = system: HCT-15 colon
TK-10 renal = system: TK-10 renal
CCRF-CEM leukemia = system: CCRF-CEM leukemia
SK-OV-3 ovarian = system: SK-OV-3 ovarian
MDA-MB-231 breast = system: MDA-MB-231 breast
MCF7 breast = system: MCF7 breast
IGROV1 ovarian = system: IGROV1 ovarian
NCI-H522 lung = system: NCI-H522 lung
EKVX NSCLC = system: EKVX NSCLC
T-47D breast = system: T-47D breast
SF-539 CNS = system: SF-539 CNS
A498 renal = system: A498 renal
MOLT-4 leukemia = system: MOLT-4 leukemia
K-562 leukemia = system: K-562 leukemia
BT-549 breast = system: BT-549 breast
HS 578T breast = system: HS 578T breast
LOX IMVI melanoma = system: LOX IMVI melanoma
NCI-H460 NSCLC = system: NCI-H460 NSCLC
NCI/ADR-RES ovarian = system: NCI/ADR-RES ovarian
HOP-62 NSCLC = system: HOP-62 NSCLC
SF-268 CNS = system: SF-268 CNS
HCC-2998 colon = system: HCC-2998 colon
NCI-H226 lung = system: NCI-H226 lung
786-0 renal = system: 786-0 renal
NCI-H322M lung = system: NCI-H322M lung
SF-295 CNS = system: SF-295 CNS
NCI-H23 lung = system: NCI-H23 lung
RXF 393 renal = system: RXF 393 renal
SW-620 colon = system: SW-620 colon
DU-145 prostate = system: DU-145 prostate
UACC-62 melanoma = system: UACC-62 melanoma
ACHN renal = system: ACHN renal
OVCAR-5 ovarian = system: OVCAR-5 ovarian
U251 glioblastoma = system: U251 glioblastoma
COLO 205 colon = system: COLO 205 colon
UO-31 renal = system: UO-31 renal
M14 melanoma = system: M14 melanoma
HL-60(TB) leukemia = system: HL-60(TB) leukemia
A549 NSCLC = system: A549 NSCLC
PC-3 prostate = system: PC-3 prostate
KM12 colon = system: KM12 colon
MDA-MB-435 melanoma = system: MDA-MB-435 melanoma
HCT-116 colon = system: HCT-116 colon
SK-MEL-5 melanoma = system: SK-MEL-5 melanoma
HT29 colon = system: HT29 colon
HOP-92 NSCLC = system: HOP-92 NSCLC
OVCAR-3 ovarian = system: OVCAR-3 ovarian

Work on CN1CCN(c2ccc3nc(-c4c5cccccc-5[nH]c4=O)[nH]c3c2)CC1 yielded a GI50 (SNB-19 CNS) of 10.3 µM, a TGI (SNB-19 CNS) of 39.2 µM and a GI50 (MDA-MB-468 breast) of 5.61 µM. For the same molecule, the TGI (MDA-MB-468 breast) was 21 µM, the GI50 (UACC-257 melanoma) was 9.05 µM and the TGI (UACC-257 melanoma) was 21.4 µM. It also gave a GI50 (CAKI-1 renal) of 5.23 µM, a TGI (CAKI-1 renal) of 18.2 µM and a GI50 (SK-MEL-2 melanoma) of 28.6 µM. It also gave a TGI (SK-MEL-2 melanoma) of 44.4 µM, a GI50 (SR leukemia) of 2.17 µM and a TGI (SR leukemia) of 4.45 µM. The GI50 (SNB-75 CNS) was 3.71 µM, the TGI (SNB-75 CNS) was 17.6 µM and the GI50 (OVCAR-4 ovarian) was 10.3 µM. For the same molecule, the TGI (OVCAR-4 ovarian) was 38.6 µM, the GI50 (SN12C renal) was 3.39 µM and the TGI (SN12C renal) was 17.8 µM. For the same molecule, the GI50 (SK-MEL-28 melanoma) was 15.9 µM, the TGI (SK-MEL-28 melanoma) was 35 µM and the GI50 (MALME-3M melanoma) was 11 µM. The TGI (MALME-3M melanoma) was 23.1 µM, the GI50 (RPMI-8226 leukemia) was 10 µM and the TGI (RPMI-8226 leukemia) was 21.7 µM. It also gave a GI50 (HCT-15 colon) of 7.04 µM, a TGI (HCT-15 colon) of 26.4 µM and a GI50 (TK-10 renal) of 4.51 µM. The TGI (TK-10 renal) was 19.3 µM, the GI50 (CCRF-CEM leukemia) was 3.47 µM and the TGI (CCRF-CEM leukemia) was 10.7 µM. For the same molecule, the GI50 (SK-OV-3 ovarian) was 5.76 µM, the TGI (SK-OV-3 ovarian) was 23.7 µM and the GI50 (MDA-MB-231 breast) was 5.78 µM. It also gave a TGI (MDA-MB-231 breast) of 22.1 µM, a GI50 (MCF7 breast) of 7.26 µM and a TGI (MCF7 breast) of 21.3 µM. For the same molecule, the GI50 (IGROV1 ovarian) was 3.84 µM, the TGI (IGROV1 ovarian) was 15.6 µM and the GI50 (NCI-H522 lung) was 9.06 µM. The TGI (NCI-H522 lung) was 29.6 µM, the GI50 (EKVX NSCLC) was 10.1 µM and the TGI (EKVX NSCLC) was 33.3 µM. For the same molecule, the GI50 (T-47D breast) was 16.9 µM, the TGI (T-47D breast) was 37.9 µM and the GI50 (SF-539 CNS) was 3.66 µM. The TGI (SF-539 CNS) was 13.2 µM, the GI50 (A498 renal) was 12.7 µM and the TGI (A498 renal) was 26.3 µM. It also gave a GI50 (MOLT-4 leukemia) of 1.8 µM, a TGI (MOLT-4 leukemia) of 3.2 µM and a GI50 (K-562 leukemia) of 4.85 µM. For the same molecule, the TGI (K-562 leukemia) was 16.7 µM, the GI50 (BT-549 breast) was 4.48 µM and the TGI (BT-549 breast) was 14.6 µM. For the same molecule, the GI50 (HS 578T breast) was 4.73 µM, the TGI (HS 578T breast) was 18.4 µM and the GI50 (LOX IMVI melanoma) was 10.7 µM. It also gave a TGI (LOX IMVI melanoma) of 22.7 µM, a GI50 (NCI-H460 NSCLC) of 3.65 µM and a TGI (NCI-H460 NSCLC) of 13.8 µM. The GI50 (NCI/ADR-RES ovarian) was 16.7 µM, the TGI (NCI/ADR-RES ovarian) was 47.1 µM and the GI50 (HOP-62 NSCLC) was 4.43 µM. It also gave a TGI (HOP-62 NSCLC) of 20.9 µM, a GI50 (SF-268 CNS) of 10.3 µM and a TGI (SF-268 CNS) of 31.8 µM. It also gave a GI50 (HCC-2998 colon) of 7.05 µM, a TGI (HCC-2998 colon) of 29.1 µM and a GI50 (NCI-H226 lung) of 4.07 µM. It also gave a TGI (NCI-H226 lung) of 18 µM, a GI50 ([…]-0 renal) of 7.07 µM and a TGI (786-0 renal) of 28.1 µM. The GI50 (NCI-H322M lung) was 10.4 µM, the TGI (NCI-H322M lung) was 33.6 µM and the GI50 (SF-295 CNS) was 12.2 µM. The TGI (SF-295 CNS) was 32 µM, the GI50 (NCI-H23 lung) was 7.46 µM and the TGI (NCI-H23 lung) was 26.8 µM. For the same molecule, the GI50 (RXF 393 renal) was 2.7 µM, the TGI (RXF 393 renal) was 8.68 µM and the GI50 (SW-620 colon) was 6.59 µM. It also gave a TGI (SW-620 colon) of 24.9 µM, a GI50 (DU-145 prostate) of 6.01 µM and a TGI (DU-145 prostate) of 26.7 µM. For the same molecule, the GI50 (UACC-62 melanoma) was 8.99 µM, the TGI (UACC-62 melanoma) was 21.2 µM and the GI50 (ACHN renal) was 4.63 µM. For the same molecule, the TGI (ACHN renal) was 16.8 µM, the GI50 (OVCAR-5 ovarian) was 10.5 µM and the TGI (OVCAR-5 ovarian) was 33.4 µM. For the same molecule, the GI50 (U251 glioblastoma) was 5.62 µM, the TGI (U251 glioblastoma) was 22.2 µM and the GI50 (COLO 205 colon) was 5.27 µM. For the same molecule, the TGI (COLO 205 colon) was 17.7 µM, the GI50 (UO-31 renal) was 6.3 µM and the TGI (UO-31 renal) was 19.2 µM. The GI50 (M14 melanoma) was 9.46 µM, the TGI (M14 melanoma) was 21.4 µM and the GI50 (HL-60(TB) leukemia) was 3.83 µM. The TGI (HL-60(TB) leukemia) was 12.4 µM, the GI50 (A549 NSCLC) was 6.49 µM and the TGI (A549 NSCLC) was 38.1 µM. The GI50 (PC-3 prostate) was 6.81 µM, the TGI (PC-3 prostate) was 25.3 µM and the GI50 (KM12 colon) was 0.371 µM. For the same molecule, the TGI (KM12 colon) was 10.7 µM, the GI50 (MDA-MB-435 melanoma) was 11.9 µM and the TGI (MDA-MB-435 melanoma) was 31.9 µM. The GI50 (HCT-116 colon) was 12.1 µM, the TGI (HCT-116 colon) was 25.3 µM and the GI50 (SK-MEL-5 melanoma) was 8.18 µM. For the same molecule, the TGI (SK-MEL-5 melanoma) was 21 µM, the GI50 (HT29 colon) was 6.92 µM and the TGI (HT29 colon) was 23.9 µM. It also gave a GI50 (HOP-92 NSCLC) of 3.99 µM, a TGI (HOP-92 NSCLC) of 16.7 µM and a GI50 (OVCAR-3 ovarian) of 12.3 µM. For the same molecule, the TGI (OVCAR-3 ovarian) was 28.2 µM.
